Laboratory results taken from US9040545B2, “Heterocyclyl pyrazolopyrimidine analogues as selective JAK inhibitors” (Cellzome Limited, priority 2010, dated 2015).

What was measured:
JAK2 = molecular target: T1, JAK2 (Homo sapiens, UniProt O60674); test: Kinobeads assay, JAK2; assay type: binding; conditions: mixed Molt4/Ramos lysate, read-out: Inhibition values (IC50) JAK2
T1 construct: endogenous in cells; host or cells: mixed Molt4/Ramos lysate (1:2)
Summary of the method: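 Competition binding in mixed Molt4/Ramos cell lysate (1:2, 10 mg/mL protein) with Kinobeads carrying immobilized aminopyrido-pyrimidine ligand, 3 h in cold room; 9-step 1:3 compound dilution series from 5 mM DMSO stock. Bead-bound JAK2/JAK3 eluted and quantified by antibody dot blot with infrared detection; IC50 from dose-response curves.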

Aurora A = molecular target: T2, Aurora A (Homo sapiens, UniProt O14965); test: Kinobeads assay, Aurora A; assay type: binding; conditions: for IC50: lysate of pervanadate-treated Jurkat cells, read-out: Inhibition values (IC50) Aur A
T2 construct: cell lysates from Jurkat cells (ATCC TIB-152) used; endogenous in cells; host or cells: Jurkat cells (ATCC TIB-152), treated with pervanadate
T2 sequence (O14965 1-403): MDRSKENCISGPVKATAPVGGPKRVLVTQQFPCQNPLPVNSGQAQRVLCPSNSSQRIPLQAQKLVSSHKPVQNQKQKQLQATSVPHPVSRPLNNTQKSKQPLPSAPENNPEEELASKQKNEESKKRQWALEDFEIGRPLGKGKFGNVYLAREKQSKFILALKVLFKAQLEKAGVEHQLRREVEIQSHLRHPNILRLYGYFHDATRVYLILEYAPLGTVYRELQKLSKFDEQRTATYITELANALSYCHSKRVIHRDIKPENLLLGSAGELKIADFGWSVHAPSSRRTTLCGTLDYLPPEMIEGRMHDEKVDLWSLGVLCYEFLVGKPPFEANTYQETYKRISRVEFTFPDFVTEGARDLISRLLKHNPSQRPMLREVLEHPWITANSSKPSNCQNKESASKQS

T1 sequence (O60674 whole entry): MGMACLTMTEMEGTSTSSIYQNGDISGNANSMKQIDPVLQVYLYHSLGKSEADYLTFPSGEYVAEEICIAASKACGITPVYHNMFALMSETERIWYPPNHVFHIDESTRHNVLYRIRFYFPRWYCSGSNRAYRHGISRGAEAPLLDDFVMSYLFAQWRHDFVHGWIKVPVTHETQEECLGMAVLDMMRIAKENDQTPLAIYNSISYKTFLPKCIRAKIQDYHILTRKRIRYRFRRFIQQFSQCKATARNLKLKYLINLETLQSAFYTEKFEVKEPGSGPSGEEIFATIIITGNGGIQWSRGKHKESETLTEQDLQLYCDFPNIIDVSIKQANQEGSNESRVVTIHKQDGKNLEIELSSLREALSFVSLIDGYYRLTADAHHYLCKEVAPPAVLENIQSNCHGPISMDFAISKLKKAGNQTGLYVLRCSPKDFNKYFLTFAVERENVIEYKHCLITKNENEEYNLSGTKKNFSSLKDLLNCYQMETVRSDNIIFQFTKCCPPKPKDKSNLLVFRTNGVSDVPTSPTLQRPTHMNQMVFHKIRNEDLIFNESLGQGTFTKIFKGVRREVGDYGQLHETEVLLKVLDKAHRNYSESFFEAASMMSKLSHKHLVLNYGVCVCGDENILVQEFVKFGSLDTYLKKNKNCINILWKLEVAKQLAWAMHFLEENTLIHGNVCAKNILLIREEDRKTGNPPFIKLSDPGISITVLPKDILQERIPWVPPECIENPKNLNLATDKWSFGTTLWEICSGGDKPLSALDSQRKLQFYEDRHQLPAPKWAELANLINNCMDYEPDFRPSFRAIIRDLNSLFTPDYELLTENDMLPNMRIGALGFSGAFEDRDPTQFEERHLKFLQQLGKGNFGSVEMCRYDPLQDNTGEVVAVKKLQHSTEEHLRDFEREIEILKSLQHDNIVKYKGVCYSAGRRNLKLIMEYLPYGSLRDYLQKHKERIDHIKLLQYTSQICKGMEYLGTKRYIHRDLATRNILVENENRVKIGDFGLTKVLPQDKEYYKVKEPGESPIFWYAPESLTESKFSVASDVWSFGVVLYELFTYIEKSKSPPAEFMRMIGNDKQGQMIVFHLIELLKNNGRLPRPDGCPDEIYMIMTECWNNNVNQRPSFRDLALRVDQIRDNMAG

| SMILES | IC50 (JAK2) [nM] | JAK3/AurA Fold Selectivity (Aurora A) | IC50 (Aurora A) [nM] |
| --- | --- | --- | --- |
| Cn1cc(Nc2ncc3cnn(Cc4cccc(N5CCOCC5=O)c4F)c3n2)cn1 [Example 40, 4-(2-Fluoro-3-((6-((1-methyl-1H-pyrazol-4-yl)amino)-1H-pyrazolo[3,4-d]pyrimidin-1-yl)methyl)phenyl)morpholin-3-one] | 1000 to 10000 | 10-50 Fold | 100 to 1000 |
| CNCC1(Cn2cc(Nc3ncc4cnn(Cc5cccc(N6CCOCC6)c5)c4n3)cn2)COC1 [Example 41, N-(1-((3-((Methylamino)methyl)oxetan-3-yl)methyl)-1H-pyrazol-4-yl)-1-(3-morpholinobenzyl)-1H-pyrazolo[3,4-d]pyrimidin-6-amine] | ≥ 10000 | 10-50 Fold | 1000 to 10000 |
| Cn1cc(Nc2ncc3cnn(Cc4cccc(N5CC6(COC6)C5)c4)c3n2)cn1 [Example 89, 1-(3-(2-oxa-6-azaspiro[3.3]heptan-6-yl)benzyl)-N-(1-methyl-1H-pyrazol-4-yl)-1H-pyrazolo[3,4-d]pyrimidin-6-amine] | ≥ 10000 | 10-50 Fold | 100 to 1000 |
| Cn1cc(Nc2ncc3cnn(Cc4cc(F)cc(N5CC6(COC6)C5)c4)c3n2)cn1 [Example 90, 1-(3-fluoro-5-(2-oxa-6-azaspiro[3.3]heptan-6-yl)benzyl)-N-(1-methyl-1H-pyrazol-4-yl)-1H-pyrazolo[3,4-d]pyrimidin-6-amine] | 1000 to 10000 | 10-50 Fold | ≥ 10000 |
| Cn1cc(Nc2ncc3cnn(Cc4cccc(N5CC6(COC6)C5)c4F)c3n2)cn1 [Example 91, 1-(2-fluoro-3-(2-oxa-6-azaspiro[3.3]heptan-6-yl)benzyl)-N-(1-methyl-1H-pyrazol-4-yl)-1H-pyrazolo[3,4-d]pyrimidin-6-amine] | 1000 to 10000 | – | ≥ 10000 |
| OCCn1cc(Nc2ncc3cnn(Cc4cc(F)cc(N5CCNCC5)c4)c3n2)cn1 [Example 93, 2-(4-((1-(3-fluoro-5-(piperazin-1-yl)benzyl)-1H-pyrazolo[3,4-d]pyrimidin-6-yl)amino)-1H-pyrazol-1-yl)ethanol] | 1000 to 10000 | 10-50 Fold | 100 to 1000 |
| Cn1cc(Nc2ncc3cnn(Cc4cc(F)cc(N5CCNCC5)c4F)c3n2)cn1 [Example 95, 1-(2,5-difluoro-3-(piperazin-1-yl)benzyl)-N-(1-methyl-1H-pyrazol-4-yl)-1H-pyrazolo[3,4-d]pyrimidin-6-amine] | 100 to 1000 | 10-50 Fold | 100 to 1000 |
| OCCn1cc(Nc2ncc3cnn(Cc4cc(F)cc(N5CCNCC5)c4F)c3n2)cn1 [Example 96, 2-(4-((1-(2,5-difluoro-3-(piperazin-1-yl)benzyl)-1H-pyrazolo[3,4-d]pyrimidin-6-yl)amino)-1H-pyrazol-1-yl)ethanol] | 100 to 1000 | >50 Fold | ≥ 10000 |
| CN(C)CC(F)Cn1cc(Nc2ncc3cnn(Cc4cc(F)cc(N5CCOCC5=O)c4)c3n2)cn1 (centres unmarked) [Example 97, 4-(3-((6-((1-(3-(dimethylamino)-2-fluoropropyl)-1H-pyrazol-4-yl)amino)-1H-pyrazolo[3,4-d]pyrimidin-1-yl)methyl)-5-fluorophenyl)morpholin-3-one] | 1000 to 10000 | 10-50 Fold | 100 to 1000 |
| O=C1COCCN1c1cc(F)cc(Cn2ncc3cnc(Nc4cnn(C5CCNCC5)c4)nc32)c1 [Example 102, 4-(3-fluoro-5-((6-((1-(piperidin-4-yl)-1H-pyrazol-4-yl)amino)-1H-pyrazolo[3,4-d]pyrimidin-1-yl)methyl)phenyl)morpholin-3-one] | 100 to 1000 | 10-50 Fold | < 100 |
| Cn1cc(Nc2ncc3cnn(Cc4cccc(N5CCOCC5)c4Cl)c3n2)cn1 [Example 103, 1-(2-chloro-3-morpholinobenzyl)-N-(1-methyl-1H-pyrazol-4-yl)-1H-pyrazolo[3,4-d]pyrimidin-6-amine] | 1000 to 10000 | 3-10 Fold | < 100 |
| Cn1cc(Nc2ncc3cnn(Cc4cccc(N5CCC6(COC6)C5)c4)c3n2)cn1 [Example 104, 1-(3-(2-oxa-6-azaspiro[3.4]octan-6-yl)benzyl)-N-(1-methyl-1H-pyrazol-4-yl)-1H-pyrazolo[3,4-d]pyrimidin-6-amine] | ≥ 10000 | 10-50 Fold | 100 to 1000 |
| O=C1COCCN1c1cc(F)cc(Cn2ncc3cnc(Nc4cnn(CCS(=O)(=O)NC5CC5)c4)nc32)c1 [Example 106, N-cyclopropyl-2-(4-((1-(3-fluoro-5-(3-oxomorpholino)benzyl)-1H-pyrazolo[3,4-d]pyrimidin-6-yl)amino)-1H-pyrazol-1-yl)ethanesulfonamide] | 1000 to 10000 | 10-50 Fold | 100 to 1000 |
| O=C(Cn1cc(Nc2ncc3cnn(Cc4cc(F)cc(N5CCOCC5=O)c4)c3n2)cn1)N1CCNCC1 [Example 109, 4-(3-fluoro-5-((6-((1-(2-oxo-2-(piperazin-1-yl)ethyl)-1H-pyrazol-4-yl)amino)-1H-pyrazolo[3,4-d]pyrimidin-1-yl)methyl)phenyl)morpholin-3-one] | 1000 to 10000 | 3-10 Fold | < 100 |

Now from value to compound:

| IC50 (JAK2) [nM] | JAK3/AurA Fold Selectivity (Aurora A) | IC50 (Aurora A) [nM] | SMILES |
| --- | --- | --- | --- |
| 1000 to 10000 | 10-50 Fold | 100 to 1000 | OCCn1cc(Nc2ncc3cnn(Cc4cccc(N5CCOCC5)c4F)c3n2)cn1 [Example 39, 2-(4-((1-(2-Fluoro-3-morpholinobenzyl)-1H-pyrazolo[3,4-d]pyrimidin-6-yl)amino)-1H-pyrazol-1-yl)ethanol] |
| 1000 to 10000 | 10-50 Fold | 100 to 1000 | Cn1cc(Nc2ncc3cnn(Cc4cc(F)cc(N5CCNCC5)c4)c3n2)cn1 [Example 92, 1-(3-fluoro-5-(piperazin-1-yl)benzyl)-N-(1-methyl-1H-pyrazol-4-yl)-1H-pyrazolo[3,4-d]pyrimidin-6-amine] |
| 1000 to 10000 | >50 Fold | 1000 to 10000 | Fc1cc(N2CCOCC2)c(F)c(Cn2ncc3cnc(Nc4cnn(CC5CCNC5)c4)nc32)c1F (centres unmarked) [Example 94, N-(1-(pyrrolidin-3-ylmethyl)-1H-pyrazol-4-yl)-1-(2,3,6-trifluoro-5-morpholinobenzyl)-1H-pyrazolo[3,4-d]pyrimidin-6-amine] |
| 1000 to 10000 | 3-10 Fold | < 100 | Cn1cc(Nc2ncc3cnn(Cc4cc(C(=O)N5CCOCC5)cc(F)c4F)c3n2)cn1 [Example 98, (3,4-difluoro-5-((6-((1-methyl-1H-pyrazol-4-yl)amino)-1H-pyrazolo[3,4-d]pyrimidin-1-yl)methyl)phenyl)(morpholino)methanone] |
| 1000 to 10000 | 3-10 Fold | < 100 | CNCCCn1cc(Nc2ncc3cnn(Cc4cc(F)cc(N5CCOCC5=O)c4)c3n2)cn1 [Example 99, 4-(3-fluoro-5-((6-((1-(3-(methylamino)propyl)-1H-pyrazol-4-yl)amino)-1H-pyrazolo[3,4-d]pyrimidin-1-yl)methyl)phenyl)morpholin-3-one] |
| ≥ 10000 | 3-10 Fold | 100 to 1000 | Cn1cc(Nc2ncc3cnn(Cc4cccc(N5CCN(S(C)(=O)=O)CC5)c4)c3n2)cn1 [Example 100, N-(1-methyl-1H-pyrazol-4-yl)-1-(3-(4-(methylsulfonyl)piperazin-1-yl)benzyl)-1H-pyrazolo[3,4-d]pyrimidin-6-amine] |
| 1000 to 10000 | 10-50 Fold | < 100 | O=C1COCCN1c1cc(F)cc(Cn2ncc3cnc(Nc4cnn(CC5CCNC5)c4)nc32)c1 (centres unmarked) [Example 101, 4-(3-fluoro-5-((6-((1-(pyrrolidin-3-ylmethyl)-1H-pyrazol-4-yl)amino)-1H-pyrazolo[3,4-d]pyrimidin-1-yl)methyl)phenyl)morpholin-3-one] |
| 1000 to 10000 | 10-50 Fold | 100 to 1000 | O=C1CC(Cn2cc(Nc3ncc4cnn(Cc5cc(F)cc(N6CCOCC6=O)c5)c4n3)cn2)CN1 (centres unmarked) [Example 105, 4-(3-fluoro-5-((6-((1-((5-oxopyrrolidin-3-yl)methyl)-1H-pyrazol-4-yl)amino)-1H-pyrazolo[3,4-d]pyrimidin-1-yl)methyl)phenyl)morpholin-3-one] |
| 1000 to 10000 | 3-10 Fold | < 100 | N#CCCn1cc(Nc2ncc3cnn(Cc4cc(F)cc(N5CCOCC5=O)c4)c3n2)cn1 [Example 107, 3-(4-((1-(3-fluoro-5-(3-oxomorpholino)benzyl)-1H-pyrazolo[3,4-d]pyrimidin-6-yl)amino)-1H-pyrazol-1-yl)propanenitrile] |
| ≥ 10000 | 3-10 Fold | 100 to 1000 | Cn1cc(Nc2ncc3cnn(Cc4cccc(N5CCC(=O)CC5)c4)c3n2)cn1 [Example 108, 1-(3-((6-((1-methyl-1H-pyrazol-4-yl)amino)-1H-pyrazolo[3,4-d]pyrimidin-1-yl)methyl)phenyl)piperidin-4-one] |
